The values that follow come from PMC6375636, “Monotherapy with a low-dose lipopeptide HIV fusion inhibitor maintains long-term viral suppression in rhesus macaques” (PLoS Pathogens, 2019).

SMILES strings stand for the structures. Peptide text beside a SMILES is read from it. * marks the point of attachment. Stearoyl = CCCCCCCCCCCCCCCCCC(=O)*

One data set is described as follows: in vivo. The note with it: Sprague-Dawley, rat, 6 mg/kg.
The next data set has as its system SHIVSF162P3. Kind of data set: Therapeutic efficacy in chronically SHIV-infected rhesus monkeys. Type of data set: in vivo, Chinese rhesus macaques.
The subject of the next data set is HIV-1NL4-3 pseudovirus. Kind of data set: Ex vivo inhibitory activity of sera from monkeys administrated LP-80 (single-cycle infection assay). The settings on record: monkey sera after SC 3 mg/kg. The data set is classed as in vivo, Chinese rhesus macaques. As for the experimental part:
A single-cycle infection assay was performed to determine the inhibitory activity of the monkey sera on HIV-1NL4-3 pseudovirus. The 50% effective concentration was defined as the fold serum dilution that inhibited 50% of virus infection.

The AUC(0-inf) is the area under the concentration-time curve extrapolated to infinity. Usually AUC(0-t) stands for exposure summed from dosing to a finite time, without extrapolation to infinity. The Cmax is the peak of the concentration-time curve. By MRT is commonly meant a mean duration of stay, worked out from the concentration-time curve. The term Tmax denotes the time from dosing to the highest level. By Vd is commonly meant a proportionality between amount in the body and measured concentration, not a real space. Broadly, the CL/F is clearance divided by bioavailability, as obtained after extravascular dosing. The compound `CCCCCCCCCCCCCCCCCC(=O)NCCCC[C@H](NC(=O)[C@H](CCC(=O)O)NC(=O)[C@H](CC(C)C)NC(=O)[C@H](CCCCN)NC(=O)[C@H](CCCCN)NC(=O)[C@H](CC(C)C)NC(=O)[C@H](CCC(=O)O)NC(=O)[C@H](CCC(=O)O)NC(=O)[C@H](CCC(=O)O)NC(=O)[C@H](CC(N)=O)NC(=O)[C@H](CCCCN)NC(=O)[C@H](CCCCN)NC(=O)[C@H](CCC(N)=O)NC(=O)[C@H](CCC(N)=O)NC(=O)[C@H](CCC(=O)O)NC(=O)[C@H](CCC(=O)O)NC(=O)[C@H](C)NC(=O)[C@H](CCCCN)NC(=O)[C@H](CCCCN)NC(=O)[C@H](CC(C)C)NC(=O)[C@H](CC(C)C)NC(=O)[C@H](CCC(=O)O)NC(=O)[C@H](CCC(=O)O)NC(=O)[C@@H](NC(=O)[C@H](CCCCN)NC(=O)[C@H](CCC(N)=O)NC(=O)[C@H](CCC(=O)O)NC(=O)[C@H](Cc1c[nH]c2ccccc12)NC(C)=O)[C@@H](C)CC)C(N)=O` [LP-80] (Ac-WEQKIEELLKKAEEQQKKNEEELKKLEK(Stearoyl)-NH2) yielded a level at 72 h in “in vivo” of roughly 0.007 µg/mL. In “in vivo” (iv), this compound displayed an AUC(0-inf) of 288 ± 49.4 µg·h/mL, an AUC(0-t) of 288 ± 49.4 µg·h/mL, a Cmax of 53.3 ± 10.6 µg/mL and an MRT of 7.53 ± 0.85 h. In the data set “in vivo” (iv), the Tmax stood at 0.08 h and the Vd is 0.183 ± 0.0216 L/kg. In “in vivo” (sc), the AUC(0-inf) amounted to 114 ± 33.6 µg·h/mL, the exposure AUC(0-t) came to 114 ± 33.6 µg·h/mL, the CL/F is 0.0575 L/h/kg and the Cmax was 7.65 ± 1.58 µg/mL. In “in vivo” (sc), the MRT came to 9.73 ± 1.11 h and the time to peak (Tmax) was 4 ± 2.19 h. Also, the Plasma viral load result in the data set with SHIVSF162P3 (1st treatment, SC 3 mg/kg once daily, monkeys K3 and K5, 8 days after treatment, detection limit 100 copies/ml) is “declined to below the detection limit”. In addition, the “Viral replication during treatment” value with SHIVSF162P3 (1st treatment, SC 3 mg/kg once every 4 days for 4 weeks, five monkeys) was “fully controlled”. For the same compound, in the data set on SHIVSF162P3 (2nd treatment, SC 3 mg/kg twice weekly for 6 months), the “Viral rebound during treatment” value is listed as “no viral rebound was detected”. In addition, in the data set on SHIVSF162P3 (2nd treatment, SC 3 mg/kg twice weekly, all five monkeys, day 4, before: mean 4.5 log10 RNA copies/ml), the “Plasma viral load after one injection” value is listed as “below the detection limit”. Also, the “PBMC vDNA load” value in the data set on SHIVSF162P3 (2nd treatment, monkeys K1, K2, K4, K5, detection limit 100 copies/μg total DNA) was “undetectable levels”. Moreover, the “Time to viral load rebound after LP-80 was stopped” value with SHIVSF162P3 (after 1st treatment, all treated monkeys) is 10 to 21 days. Moreover, the “Time to virus rebound after LP-80 cessation” value in the data set on SHIVSF162P3 (after 2nd treatment, four monkeys (K1 to K4)) lay in the range of 14 to 28 days. Further, the “Viral load after LP-80 withdrawal” value with SHIVSF162P3 (after 2nd treatment, monkey K5, 2 months after withdrawal) is given as “remained undetectable”. Further, the “Mean PBMC vDNA load” value in the data set with SHIVSF162P3 (after a 2-month treatment (2nd treatment), declined from 3.7, quantitative PCR) was 2.3 log10 vDNA copies/μg total DNA. Further, the “Time of peak serum inhibitory activity after injection” value in the data set with HIV-1NL4-3 pseudovirus fell in the range of 6 to 8 h.
